ChEMBL document CHEMBL3885881, “DrugMatrix”

Species on record: Rattus norvegicus
Assay: DrugMatrix - Regimen: Daily Repeat
Assay type: toxicity, organism-based, Sprague-Dawley
Design: regimen Daily Repeat, gender Male, age 6-8 weeks
Settings: in vivo, po, route oral GAVAGE, vehicle 100 % WATER; for ABSOLUTE BASOPHIL / ABSOLUTE EOSINOPHIL / ABSOLUTE LYMPHOCYTE / ABSOLUTE MONOCYTE / ABSOLUTE SEGMENTED NEUTROPHIL / BASOPHIL / EOSINOPHIL / ERYTHROCYTE COUNT / HEMATOCRIT / HEMOGLOBIN / LEUKOCYTE COUNT / LYMPHOCYTE / MEAN CORPUSCULAR HEMOGLOBIN / MEAN CORPUSCULAR HEMOGLOBIN CONCENTRATION / MEAN CORPUSCULAR VOLUME / MONOCYTE / NEUTROPHIL / NUCLEATED RED BLOOD CELLS / PLATELET COUNT: tissue Blood; for ALANINE AMINOTRANSFERASE / ALBUMIN / ALKALINE PHOSPHATASE / ASPARTATE AMINOTRANSFERASE / BLOOD UREA NITROGEN / CARBON DIOXIDE / CHLORIDE / CHOLESTEROL / CREATINE PHOSPHOKINASE / CREATININE / GLUCOSE / LACTATE DEHYDROGENASE / LIPASE / PHOSPHORUS / POTASSIUM / SODIUM / TOTAL BILIRUBIN / TOTAL PROTEIN / URIC ACID: tissue Plasma
[1] = 0 mg/kg, 72 h, dose level Control, time 3 day
[2] = 0 mg/kg, 120 h, dose level Control, time 5 day
[3] = 8 mg/kg, 72 h, dose level Low, time 3 day

## CCN(C(C)=O)c1cccc(-c2ccnc3c(C#N)cnn23)c1 [ZALEPLON]
[1]
  ABSOLUTE BASOPHIL: 0 CELLS/uL
  ABSOLUTE EOSINOPHIL: 58.83 CELLS/uL
  ABSOLUTE LYMPHOCYTE: 11823.5 CELLS/uL
  ABSOLUTE MONOCYTE: 169 CELLS/uL
  ABSOLUTE SEGMENTED NEUTROPHIL: 815.33 CELLS/uL
  BASOPHIL: 0%
  EOSINOPHIL: 0.5%
  ERYTHROCYTE COUNT: 5.52 x10E6/uL
  HEMATOCRIT: 35.77%
  HEMOGLOBIN: 14.28 G/DL
  LEUKOCYTE COUNT: 12.87 x10E3/uL
  LYMPHOCYTE: 91.67%
  MEAN CORPUSCULAR HEMOGLOBIN: 25.92 pg
  MEAN CORPUSCULAR HEMOGLOBIN CONCENTRATION: 39.95 G/DL
  MEAN CORPUSCULAR VOLUME: 64.85 fL
  MONOCYTE: 1.33%
  NEUTROPHIL: 6.5%
  NUCLEATED RED BLOOD CELLS: 0 /100WBC
  PLATELET COUNT: 1246.17 x10E3/uL
  ALANINE AMINOTRANSFERASE: 66 u/L
  ALBUMIN: 4.25 G/DL
  ALKALINE PHOSPHATASE: 416 u/L
  ASPARTATE AMINOTRANSFERASE: 106.17 u/L
  BLOOD UREA NITROGEN: 12.67 mg/dL
  CARBON DIOXIDE: 31.83 mmol/L
  CHLORIDE: 102.5 MEQ/L
  CHOLESTEROL: 69 mg/dL
  CREATINE PHOSPHOKINASE: 601.83 u/L
  CREATININE: 0.18 mg/dL
  GLUCOSE: 154.5 mg/dL
  LACTATE DEHYDROGENASE: 301.83 u/L
  LIPASE: 11.17 u/L
  PHOSPHORUS: 12.08 mg/dL
  POTASSIUM: 6.12 MEQ/L
  SODIUM: 145.2 MEQ/L
  TOTAL BILIRUBIN: 0.17 mg/dL
  TOTAL PROTEIN: 6.1 G/DL
  URIC ACID: 1.57 mg/dL
[2]
  ABSOLUTE BASOPHIL: 0 CELLS/uL
  ABSOLUTE EOSINOPHIL: 19.33 CELLS/uL
  ABSOLUTE LYMPHOCYTE: 12577.83 CELLS/uL
  ABSOLUTE MONOCYTE: 106.33 CELLS/uL
  ABSOLUTE SEGMENTED NEUTROPHIL: 896.5 CELLS/uL
  BASOPHIL: 0%
  EOSINOPHIL: 0.17%
  ERYTHROCYTE COUNT: 5.84 x10E6/uL
  HEMATOCRIT: 36.88%
  HEMOGLOBIN: 14.48 G/DL
  LEUKOCYTE COUNT: 13.6 x10E3/uL
  LYMPHOCYTE: 92.17%
  MEAN CORPUSCULAR HEMOGLOBIN: 24.85 pg
  MEAN CORPUSCULAR HEMOGLOBIN CONCENTRATION: 39.3 G/DL
  MEAN CORPUSCULAR VOLUME: 63.23 fL
  MONOCYTE: 0.83%
  NEUTROPHIL: 6.83%
  NUCLEATED RED BLOOD CELLS: 0 /100WBC
  PLATELET COUNT: 1223.5 x10E3/uL
  ALANINE AMINOTRANSFERASE: 55.33 u/L
  ALBUMIN: 4.08 G/DL
  ALKALINE PHOSPHATASE: 355.5 u/L
  ASPARTATE AMINOTRANSFERASE: 87.67 u/L
  BLOOD UREA NITROGEN: 15.33 mg/dL
  CARBON DIOXIDE: 33.83 mmol/L
  CHLORIDE: 99.67 MEQ/L
  CHOLESTEROL: 72.17 mg/dL
  CREATINE PHOSPHOKINASE: 268.33 u/L
  CREATININE: 0.15 mg/dL
  GLUCOSE: 152.5 mg/dL
  LACTATE DEHYDROGENASE: 212.67 u/L
  LIPASE: 10.83 u/L
  PHOSPHORUS: 11.65 mg/dL
  POTASSIUM: 6.73 MEQ/L
  SODIUM: 142.43 MEQ/L
  TOTAL BILIRUBIN: 0.23 mg/dL
  TOTAL PROTEIN: 6.07 G/DL
  URIC ACID: 1.7 mg/dL
[3]
  ABSOLUTE BASOPHIL: 0 CELLS/uL
  ABSOLUTE EOSINOPHIL: 0 CELLS/uL
  ABSOLUTE LYMPHOCYTE: 15455.33 CELLS/uL
  ABSOLUTE MONOCYTE: 295 CELLS/uL
  ABSOLUTE SEGMENTED NEUTROPHIL: 1116.33 CELLS/uL
  BASOPHIL: 0%
  EOSINOPHIL: 0%
  ERYTHROCYTE COUNT: 5.86 x10E6/uL
  HEMATOCRIT: 37.3%
  HEMOGLOBIN: 14.83 G/DL
  LEUKOCYTE COUNT: 16.87 x10E3/uL
  LYMPHOCYTE: 91.67%
  MEAN CORPUSCULAR HEMOGLOBIN: 25.33 pg
  MEAN CORPUSCULAR HEMOGLOBIN CONCENTRATION: 39.77 G/DL
  MEAN CORPUSCULAR VOLUME: 63.67 fL
  MONOCYTE: 1.67%
  NEUTROPHIL: 6.67%
  NUCLEATED RED BLOOD CELLS: 0 /100WBC
  PLATELET COUNT: 1367.67 x10E3/uL
  ALANINE AMINOTRANSFERASE: 54.67 u/L
  ALBUMIN: 4.17 G/DL
  ALKALINE PHOSPHATASE: 303 u/L
  ASPARTATE AMINOTRANSFERASE: 88.33 u/L
  BLOOD UREA NITROGEN: 12 mg/dL
  CARBON DIOXIDE: 32.67 mmol/L
  CHLORIDE: 101.67 MEQ/L
  CHOLESTEROL: 70.67 mg/dL
  CREATINE PHOSPHOKINASE: 534 u/L
  CREATININE: 0.2 mg/dL
  GLUCOSE: 151 mg/dL
  LACTATE DEHYDROGENASE: 218 u/L
  LIPASE: 13.67 u/L
  PHOSPHORUS: 12.87 mg/dL
  POTASSIUM: 6.77 MEQ/L
  SODIUM: 145.17 MEQ/L
  TOTAL BILIRUBIN: 0.17 mg/dL
  TOTAL PROTEIN: 5.9 G/DL
  URIC ACID: 1.7 mg/dL
